This is an account of results in paper PMC11855827, “High-Throughput Screening of Five Compound Libraries for Anthelmintic Activity and Toxicity Leads to the Discovery of Two Flavonoid Compounds” (International Journal of Molecular Sciences, 2025).

This assay concerns C. elegans. As to the kind of experiment: microbe, parasite or virus in culture. Particulars: Caenorhabditis elegans.
[1] abbreviates: 0 h, read-out: Percentage of motility inhibition 0 h, Table S2, C. elegans SS assay, 110 μM, 0 h, averages of 4 data points.
[2] abbreviates: 24 h, read-out: Percentage of motility inhibition 24 h, Table S2, C. elegans SS assay, 110 μM, 24 h, averages of 4 data points.
The mark [3] stands for this setting: 0 h, read-out: Percentage of motility inhibition 0 h.
[4] abbreviates: 24 h, read-out: Percentage of motility inhibition 24 h.

The inhibition is the drop in the measured response relative to a control, in per cent.

The structures appear in SMILES notation. Like-named read-outs stand apart in the source and are kept apart here.

Consider `C=C(NC(=O)C(=C)NC(=O)c1csc(C2=N[C@@H]3c4csc(n4)[C@H]4NC(=O)c5csc(n5)[C@H]([C@](C)(O)[C@@H](C)O)NC(=O)[C@H]5CSC(=N5)/C(=C/C)NC(=O)[C@H]([C@@H](C)O)NC(=O)c5csc(n5)[C@]3(CC2)NC(=O)[C@H](C)NC(=O)C(=C)NC(=O)[C@H](C)NC(=O)[C@H]([C@@H](C)CC)N[C@@H]2C=Cc3c([C@H](C)O)cc(nc3[C@H]2O)C(=O)O[C@@H]4C)n1)C(N)=O` [Thiostrepton], for which the inhibition at 110 µM is, setting by setting: under setting [1], 11%; under setting [2], 31%. Consider `Cc1ccc(C(C)C)c(O)c1` [Thymol], for which the inhibition at 110 µM by setting is: under setting [1], 54%; under setting [2], 28%. In the same order, the values of `CN(C)c1cc(NC(=O)CNC(C)(C)C)c(O)c2c1C[C@H]1C[C@H]3[C@H](N(C)C)C(O)=C(C(N)=O)C(=O)[C@@]3(O)C(O)=C1C2=O` [Tigecycline] are 31% and 19%.

Consider `O=C(/C=C/c1ccc(O)cc1)OC[C@H]1O[C@@H](Oc2c(-c3ccc(O)cc3)oc3cc(O)cc(O)c3c2=O)[C@H](O)[C@@H](O)[C@@H]1O` [Tiliroside], for which the inhibition at 110 µM is 2% under setting [3] and 9% under setting [4]. For the compound `CCS(=O)(=O)CCn1c([N+](=O)[O-])cnc1C` [Tinidazole], the inhibition at 110 µM is, setting by setting: under setting [1], 25%; under setting [2], 8%. The like results for `Clc1ccc(C(Cn2ccnc2)OCc2ccsc2Cl)c(Cl)c1` (stereo not drawn) [Tioconazole] were, in that order, 30% and 43%.

`O=C(Nc1ncc([N+](=O)[O-])s1)c1ccccc1O` [Tizoxanide]: the inhibition at 110 µM is, setting by setting: under setting [1], 40%; under setting [2], 53%. The like results for `NC[C@H]1O[C@H](O[C@H]2[C@H](O)[C@@H](O[C@H]3O[C@H](CO)[C@@H](O)[C@H](N)[C@H]3O)[C@H](N)C[C@@H]2N)[C@H](N)C[C@@H]1O` [Tobramycin] were, in that order, 9% and 0%. The like results for `COP(=S)(OC)Oc1c(Cl)cc(C)cc1Cl` [Tolclofos‐methyl] were, in that order, 35% and 20%. In the same order, the values of `Cc1cccc(N(C)C(=S)Oc2ccc3ccccc3c2)c1` [Tolnaftate] are 25% and 26%.

Take `Cc1cc(-n2c(=O)[nH]c(=O)n(C)c2=O)ccc1Oc1ccc(SC(F)(F)F)cc1` [Toltrazuril]: the inhibition at 110 µM turned out to be 31% under setting [1] and 2% under setting [2]. The like results for `C[C@H]1CC[C@]2(NC1)O[C@H]1C[C@H]3[C@@H]4CC[C@H]5C[C@@H](O)CC[C@]5(C)[C@H]4CC[C@]3(C)[C@H]1[C@@H]2C` [Tomatidine] were, in that order, 6% and 0%.

Regarding `CC(=O)O[C@@H]1C[C@H](O)[C@@]23CO[C@@H](O)[C@]1(C)[C@@H]2C[C@@H](O)[C@]1(C)[C@@H]3C(=O)[C@H](OC(C)=O)[C@@]2(C)[C@H](c3ccoc3)C[C@H]3O[C@]321` [Toosendanin], the inhibition at 110 µM was found to be 0% under setting [1] and 7% under setting [2]. For the compound `O=C(O)c1cc(=O)c2ccccc2[nH]1` [Transtorine], the inhibition at 110 µM under setting [2] was found to be 0%. For `COc1cc(-c2cc(=O)c3c(O)cc(O)cc3o2)cc(OC)c1O` [Tricin], the inhibition at 110 µM under setting [1] turned out to be 31% and the inhibition at 110 µM under setting [2] worked out at 2%. Turning to `O=C(Nc1ccc(Cl)cc1)Nc1ccc(Cl)c(Cl)c1` [Triclocarban], the inhibition at 110 µM turned out to be 15% under setting [1] and 20% under setting [2].

As to `Oc1cc(Cl)ccc1Oc1ccc(Cl)cc1Cl` [Triclosan], the inhibition at 110 µM under setting [1] came out at 45% and the inhibition at 110 µM under setting [2] worked out at 60%.

For `OC[C@H]1O[C@@H](Oc2ccc3c(c2)OC[C@H]2c4cc5c(cc4O[C@@H]32)OCO5)[C@H](O)[C@@H](O)[C@@H]1O` [Trifolirhizin], the inhibition at 110 µM is, setting by setting: under setting [1], 11%; under setting [2], 0%. In the same order, the values of `C[n+]1cccc(C(=O)[O-])c1` [Trigonelline] are 0% and 0%. In the same order, the values of `COc1cc(NCc2ccc3nc(N)nc(N)c3c2C)cc(OC)c1OC` [Trimetrexate] are 15% and 0%. The like results for `Cc1cc2cc3c(C)cc(=O)oc3c(C)c2o1` [Trioxsalen] were, in that order, 6% and 7%. On to `CC(C)c1ccc2c(c1O)CC[C@H]1C3=C(CC[C@]21C)C(=O)OC3` [Triptophenolide], for which the inhibition at 110 µM came to 11% under setting [1] and 40% under setting [2]. In the same order, the values of `CN1[C@@H]2CC[C@H]1C[C@@H](O)C2` [Tropine] are 9% and 0%. On to `O=C1c2ccccc2-n2c1nc1ccccc1c2=O` [Tryptanthrin], for which the inhibition at 110 µM under setting [3] is 11% and the inhibition at 110 µM under setting [4] was determined as 0%. `Nc1ncnc2c1ccn2[C@@H]1O[C@H](CO)[C@@H](O)[C@H]1O` [Tubercidin]: the inhibition at 110 µM reads like this: under setting [1], 5%; under setting [2], 0%. The like results for `CC[C@@H]1[C@H]2CCCCN3[C@H]2[C@H](C[C@H]3[C@@H]2C[C@H](C)C(=O)O2)[C@@H]2[C@H]1OC(=O)[C@H]2C` [Tuberostemonine] were, in that order, 6% and 4%.

As for `CC[C@H]1OC(=O)C[C@@H](O)[C@H](C)[C@@H](O[C@@H]2O[C@H](C)[C@@H](O[C@H]3C[C@@](C)(O)[C@@H](O)[C@H](C)O3)[C@H](N(C)C)[C@H]2O)[C@@H](CC=O)C[C@@H](C)C(=O)/C=C/C(C)=C/[C@@H]1CO[C@@H]1O[C@H](C)[C@@H](O)[C@@H](OC)[C@H]1OC` [Tylosin], the inhibition at 110 µM runs as follows: under setting [1], 22%; under setting [2], 0%. The like results for `O=c1cc[nH]c(=O)[nH]1` [Uracil] were, in that order, 0% and 0%. `O=c1ccn([C@@H]2O[C@H](CO)[C@@H](O)[C@H]2O)c(=O)[nH]1` [Uridine]: the inhibition at 110 µM was determined as 0% under setting [1] and 10% under setting [2]. In the same order, the values of `C[C@H]1[C@H](C)CC[C@]2(C(=O)O)CC[C@]3(C)C(=CC[C@@H]4[C@@]5(C)CC[C@H](O)C(C)(C)[C@@H]5CC[C@]43C)[C@H]12` [Ursolic acid] are 0% and 0%. Take `C[C@H]1[C@H](C)CC[C@]2(C(=O)O)CC[C@]3(C)C(=CC[C@@H]4[C@@]5(C)CCC(=O)C(C)(C)[C@@H]5CC[C@]43C)[C@H]12` [Ursonic acid]: the inhibition at 110 µM by setting is: under setting [3], 18%; under setting [4], 23%.

As for `C[C@H]1[C@H](C)CC[C@]2(CO)CC[C@]3(C)C(=CC[C@@H]4[C@@]5(C)CC[C@H](O)C(C)(C)[C@@H]5CC[C@]43C)[C@H]12` [Uvaol], the inhibition at 110 µM runs as follows: under setting [1], 19%; under setting [2], 2%. On to `CC(C)(C)C#Cc1cc(N(C(=O)[C@H]2CC[C@H](C)CC2)[C@H]2CC[C@H](O)CC2)c(C(=O)O)s1` [VX‐222], for which the inhibition at 110 µM amounted to 48% under setting [1] and 57% under setting [2]. In the same order, the values of `COc1cc(C=O)ccc1O` [Vanillin] are 24% and 11%.

For `COC[C@H]1C[C@@H](c2nc(-c3ccc4c(c3)COc3cc5c(ccc6nc([C@@H]7CC[C@H](C)N7C(=O)[C@@H](NC(=O)OC)C(C)C)[nH]c65)cc3-4)c[nH]2)N(C(=O)[C@H](NC(=O)OC)c2ccccc2)C1` [Velpatasvir], the inhibition at 110 µM runs as follows: under setting [1], 19%; under setting [2], 1%. The like results for `COc1cc(O)c2c(=O)cc(-c3ccc(O)c(OC)c3)oc2c1` [Velutin] were, in that order, 11% and 19%.

In the case of `Cc1c([C@H](C)[C@@H]2NC[C@@H](C)C[C@H]2O)ccc2c1C[C@H]1[C@H]2CC=C2C[C@@H](O)CC[C@@]21C` [Veratramine], the inhibition at 110 µM by setting is: under setting [3], 9%; under setting [4], 2%. Take `COc1ccc(C(=O)O[C@H]2CC[C@@]3(C)[C@@H]4CC[C@H]5[C@]6(O)C[C@H](O)[C@@]7(O)[C@@H](CN8C[C@@H](C)CC[C@H]8[C@@]7(C)O)[C@]6(O)C[C@@]53O[C@]24O)cc1OC` [Veratridine]: the inhibition at 110 µM is, setting by setting: under setting [1], 4%; under setting [2], 0%. In the same order, the values of `CC1=CC(=O)[C@@H]2C[C@H]1C2(C)C` [Verbenone] are 4% and 4%. The like results for `Nc1nc(N)c(O[C@@H]2O[C@H](CO)[C@@H](O)[C@H](O)[C@H]2O)c(=O)[nH]1` [Vicine] were, in that order, 0% and 0%. Take `CC[C@]12CCCN3CCc4c(n(c5ccccc45)C(=O)C1)[C@@H]32` [Vinburnine]: the inhibition at 110 µM under setting [1] was found to be 0%.

On to `CC[C@]12CCCN3CCc4c(n(c5ccccc45)[C@@](O)(C(=O)OC)C1)[C@@H]32` [Vincamine], for which the inhibition at 110 µM under setting [1] amounted to 0%.

`CCC12C=CCN3CC[C@@]4(c5ccc(OC)cc5N(C)[C@H]4[C@@](O)(C(=O)OC)[C@@H]1OC(C)=O)[C@@H]32` (stereo partly drawn) [Vindoline]: the inhibition at 110 µM is, setting by setting: under setting [1], 14%; under setting [2], 0%. On to `CCOC(=O)C1=C[C@]2(CC)CCCN3CCc4c(n1c1ccccc41)[C@@H]32` [Vinpocetine], for which, under setting [1], the inhibition at 110 µM was 0%. Turning to `CC1=C(C/C=C(\C)CCC[C@H](C)CCC[C@H](C)CCCC(C)C)C(=O)c2ccccc2C1=O` [Vitamin K1], the inhibition at 110 µM by setting is: under setting [1], 6%; under setting [2], 13%. For the compound `O=c1cc(-c2ccc(O)cc2)oc2c([C@@H]3O[C@H](CO)[C@@H](O)[C@H](O)[C@H]3O)c(O)cc(O)c12` [Vitexin], the inhibition at 110 µM is, setting by setting: under setting [1], 39%; under setting [2], 0%.

Take `CC=C1CN(C)C2Cc3c([nH]c4ccccc34)C(c3cc4[nH]c5c(c4cc3OC)CCN3CC4CC(CC)C3C5(C(=O)OC)C4)CC1C2C(=O)OC` (stereo not drawn) [Voacamine]: the inhibition at 110 µM came to 0% under setting [1] and 0% under setting [2].
